Measured values published in patent publication US6221865A, “Inhibitors of protein isoprenyl transferases” (priority 1998, dated 2001).
Counter-ions that a name gives are not always drawn. Each block holds one compound with its values, some of them ahead of it.

Molecular target: T1, protein farnesyltransferase (Rattus norvegicus, UniProt Q02293+Q04631)
T1 construct: The enzyme is purified according to Reiss, Y., et al., Cell, 62: 81-88 (1990), utilizing steps one through three; from tissue; host or cells: rat brain
T1 sequence (Q02293 whole entry, one chain of several): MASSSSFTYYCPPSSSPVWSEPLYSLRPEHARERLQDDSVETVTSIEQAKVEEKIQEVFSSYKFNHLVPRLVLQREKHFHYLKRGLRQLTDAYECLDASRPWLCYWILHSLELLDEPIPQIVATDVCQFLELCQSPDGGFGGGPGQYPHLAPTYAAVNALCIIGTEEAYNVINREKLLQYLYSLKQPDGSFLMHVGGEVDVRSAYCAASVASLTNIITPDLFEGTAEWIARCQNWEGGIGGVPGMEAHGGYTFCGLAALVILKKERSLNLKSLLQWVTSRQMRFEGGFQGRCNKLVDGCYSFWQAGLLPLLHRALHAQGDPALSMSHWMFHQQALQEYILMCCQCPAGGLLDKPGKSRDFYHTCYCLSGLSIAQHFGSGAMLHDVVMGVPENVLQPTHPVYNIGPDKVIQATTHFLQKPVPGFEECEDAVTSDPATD
Test: Inhibition of farnesyltransferase (scintillation proximity assay, rat brain enzyme, biotin-K Ras B fragment substrate)
Type: biochemical
Settings: for % inhibition of farnesyltransferase at 1 × 10^-7 M / inhibition at 0.1 µM: 1 × 10^-7 M (Table 3); for % inhibition of farnesyltransferase at 1 × 10^-6 M / inhibition at 1 µM: 1 × 10^-6 M (Table 2); for % inhibition of farnesyltransferase at 1 × 10^-8 M: 1 × 10^-8 M (Table 4); for inhibition at 0.1 µM: read-out: % inhibition of farnesyltransferase at 1 × 10^-7 M; for % inhibition of farnesyltransferase at 1 × 10^-5 M: 1 × 10^-5 M (Table 1); for inhibition at 1 µM: read-out: % inhibition of farnesyltransferase at 1 × 10^-6 M; for inhibition at 0.01 µM: read-out: % inhibition at 0.01 μM (**), Table 6, ** = 0.01 μM (footnote), title prints 0.01 mM
In short: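 Enzyme from rat brain, partly purified (steps one to three), assayed by SPA kit using 0.1 mM final biotin-K Ras B peptide as prenyl acceptor rather than biotin-lamin. Activity given as percent inhibition.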

% inhibition of farnesyltransferase at 1 × 10^-7 M: 90%
Compound: CSCC[C@H](NC(=O)c1ccc(CN(c2ccccc2)S(=O)(=O)c2ccccc2)cc1-c1ccccc1C)C(=O)O [Example 769]

% inhibition of farnesyltransferase at 1 × 10^-6 M: 67%
Compound: COc1ccc(CC(=O)Nc2ccc(C(=O)N[C@@H](CCSC)C(=O)O)c(-c3ccccc3C)c2)cc1 [Example 542]

% inhibition of farnesyltransferase at 1 × 10^-6 M: 54%
Compound: CSCC[C@H](NC(=O)c1ccc(CNc2ccccc2C(N)=O)cc1-c1ccccc1)C(=O)O [Example 644]

% inhibition of farnesyltransferase at 1 × 10^-7 M: 84%
Compound: CSCC[C@H](NC(=O)c1ccc(CNc2ccc(Oc3ccccc3)cc2)cc1-c1ccccc1C)C(=O)O [Example 864]

% inhibition of farnesyltransferase at 1 × 10^-7 M: 89%
Compound: CSCC[C@H](NC(=O)c1ccc(CN[C@@H](CO)CC2CCCCC2)cc1-c1ccccc1C)C(=O)O [Example 618]

% inhibition of farnesyltransferase at 1 × 10^-8 M: 70%
Compound: COc1cccc(CN(Cc2ccc(C(=O)N[C@@H](CCSC)C(=O)O)c(-c3ccccc3C)c2)c2ccccc2)c1 [Example 779]

inhibition at 0.1 µM: 78%
Compound: CSCC[C@H](NC(=O)c1ccc(/C=C/c2ccc(Oc3ccccc3Cl)cc2)cc1-c1ccccc1C)C(=O)O [Example 854, N-[4-(2-(4-(2-chlorophenoxy)phenyl)ethen-1-yl)-2-(2-methylphenyl)benzovyl]methionine]

% inhibition of farnesyltransferase at 1 × 10^-6 M: 36%
Compound: CSCC[C@H](NC(=O)c1ccc(CNc2ccccc2CCO)cc1-c1ccccc1)C(=O)O [Example 671]

% inhibition of farnesyltransferase at 1 × 10^-7 M: 91%
Compound: CSCC[C@H](NC(=O)c1ccc(CN(Cc2ccc(Cl)cc2)c2ccccc2)cc1-c1ccccc1C)C(=O)O [Example 781]

Compound: COc1cccc(-c2ccc(COCc3ccc(C(=O)N[C@@H](CCSC)C(=O)[O-])c(-c4ccccc4C)c3)o2)c1.[Li+] [Example 442]
% inhibition of farnesyltransferase at 1 × 10^-7 M: 88%

% inhibition of farnesyltransferase at 1 × 10^-6 M: 95%
Compound: CSCC[C@H](NC(=O)c1ccc(CN(C)CCc2ccccc2)cc1-c1ccccc1C)C(=O)O [Example 516]

Compound: CSCC[C@H](NC(=O)c1ccc(COCc2ccc(-c3cccc(C(F)(F)F)c3)o2)cc1-c1ccccc1C)C(=O)[O-].[Li+] [Example 441]
% inhibition of farnesyltransferase at 1 × 10^-7 M: 91%

% inhibition of farnesyltransferase at 1 × 10^-5 M: 48%
Compound: CSCC[C@H](NC(=O)c1ccc(CNc2cccc(Oc3ccccc3)c2)cc1-c1ccccc1)C(=O)O [Example 686]

inhibition at 0.1 µM: 65%
Compound: CSCC[C@H](NC(=O)c1ccc(/C=C/c2ccc(Oc3cccc([N+](=O)[O-])c3)cc2)cc1-c1ccccc1C)C(=O)O [Example 861, N-[4-(2-(4-(3-nitrophenoxy)phenyl)ethen-1-yl)-2-(2-methylphenyl)benzoyl]methioziine]

% inhibition of farnesyltransferase at 1 × 10^-6 M: 72%
Compound: CSCC[C@H](NC(=O)c1ccc(CN(CCO)c2ccccc2)cc1-c1ccccc1)C(=O)O [Example 505]

% inhibition of farnesyltransferase at 1 × 10^-6 M: 95%
Compound: COc1ccc(CCOCc2ccc(C(=O)N[C@@H](CCSC)C(=O)O)c(-c3ccccc3C)c2)cc1 [Example 937]

inhibition at 1 µM: 96%
Compound: CSCC[C@H](NC(=O)c1ccc(/C=C/c2cncnc2)cc1-c1ccccc1C)C(=O)O [Example 494, N-[4-(2-pyrimidin-5-ylethen-1-yl)-2-(2-methylphenyl)benzoyl]methionine lithium salt]

inhibition at 1 µM: 98%
Compound: Cc1ccccc1-c1cc(CN(C2CC2)C(C)(C)Cc2ccccc2)ccc1C(=O)N[C@@H](CCS(C)(=O)=O)C(=O)O [Example 319]

inhibition at 1 µM: 81%
Compound: Cc1ccccc1-c1cc(CCc2ccccc2Oc2ccccc2)ccc1C(=O)N[C@@H](CC[S+](C)[O-])C(=O)O (stereo partly drawn) [Example 456, N-[4-(2-(2-phenoxyphenyl)ethyl)-2-(2-methylphenyl)benzoyl]-2-amino-4-methylsulfinylbutanoic acid lithium salt]

inhibition at 1 µM: 93%
Compound: Cc1ccccc1-c1cc(CN(C2CC2)C2(CC3CCCCC3)CCC2)ccc1C(=O)N[C@@H](CCS(C)(=O)=O)C(=O)O [Example 334]

inhibition at 1 µM: 96%
Compound: CSCC[C@H](NC(=O)c1ccc(CCCC(=O)c2ccc3ccccc3c2)cc1-c1ccccc1C)C(=O)O [Example 473, N-[4-(4-naphth-2-ylbut-4-on-1-yl)-2-(2-methylphenyl)benzoyl]methionine lithium salt]

Compound: CSCC[C@H](NC(=O)c1ccc(COC2(Cc3ccccc3)CCN(C(=O)OC(C)(C)C)CC2)cc1-c1ccccc1C)C(=O)[O-].[Li+] [Example 809]
% inhibition of farnesyltransferase at 1 × 10^-6 M: 78%

% inhibition of farnesyltransferase at 1 × 10^-8 M: 95%
Compound: CSCC[C@H](NC(=O)c1ccc(CN(CCC2CCCCC2)Cc2cncs2)cc1-c1ccccc1C)C(=O)O [Example 986]

Compound: CSCC[C@H](NC(=O)c1ccc(CSCc2ccc(C)cc2)cc1-c1ccccc1C)C(=O)[O-].[Li+] [Example 556]
% inhibition of farnesyltransferase at 1 × 10^-6 M: 99%

Compound: CSCC[C@H](NC(=O)c1ccc(COCc2cnc(-c3cccc(Cl)c3)s2)cc1-c1ccccc1C)C(=O)[O-].[Li+] [Example 899]
% inhibition of farnesyltransferase at 1 × 10^-8 M: 88%

Compound: CSCC[C@H](NC(=O)c1ccc(CN(Cc2ccccc2)c2ccc(SC)cc2)cc1-c1ccccc1C)C(=O)[O-].[Li+] [Example 852]
% inhibition of farnesyltransferase at 1 × 10^-8 M: 79%

inhibition at 0.01 µM: 73%
Compound: CSCC[C@H](NC(=O)c1ccc(C/C(=C\c2cncs2)COc2cc(F)cc(F)c2)cc1-c1ccccc1C)C(=O)O [Example 1163, N-{4-[E-2-(3,5-diflourophenoxy)methyl-3-(thiazol-5-yl)prop-2-enyl]-2-(2-methylphenyl)benzoyl}methionine Lithium Salt]

% inhibition of farnesyltransferase at 1 × 10^-6 M: 96%
Compound: CSCC[C@H](NC(=O)c1ccc(CN(CCc2ccccc2)C(C)C)cc1-c1ccccc1C)C(=O)O [Example 835]

% inhibition of farnesyltransferase at 1 × 10^-6 M: 94%
Compound: CSCC[C@H](NC(=O)c1ccc(CN(Cc2ccccc2)Cc2ccccc2)cc1-c1ccccc1C)C(=O)O [Example 512]

inhibition at 1 µM: 93%
Compound: CSCC[C@H](NC(=O)c1ccc(C=CCc2ccc3ccccc3c2)cc1-c1ccccc1C)C(=O)O (mixture of isomers) [Example 496, N-[4-(3-naphth-2-ylprop-1-enyl)-2-(2-methylphenyl)benzoyl]methionine lithium salt (1:1 mixture of olefin isomers)]

inhibition at 1 µM: 95%
Compound: CSCC[C@H](NC(=O)c1ccc(CN(C(C)C)C2(CC3CCCCC3)CCCC2)cc1-c1ccccc1C)C(=O)O [Example 344]

% inhibition at 0.1 μM (*) (Table 6, * = 0.1 μM (footnote), title prints 0.1 mM): 87%
Compound: CCCCN(CCN1CCCCC1)Cc1ccc(C(=O)N[C@@H](CCSC)C(=O)O)c(-c2ccccc2C)c1 [Example 1196]

% inhibition of farnesyltransferase at 1 × 10^-8 M: 91%
Compound: CSCC[C@H](NC(=O)c1ccc(CN(C)CCC2CCCCC2)cc1-c1ccccc1C)C(=O)[O-].[Li+] [Example 608]

% inhibition of farnesyltransferase at 1 × 10^-6 M: 69%
Compound: CSCC[C@H](NC(=O)c1ccc(CNCc2ccccc2)cc1-c1ccccc1)C(=O)O.Cl [Example 936]

% inhibition of farnesyltransferase at 1 × 10^-5 M: 76%
Compound: CSCC[C@H](NC(=O)c1ccc(CNc2ccc3ncccc3c2)cc1-c1ccccc1)C(=O)O [Example 708]

inhibition at 0.01 µM: 92%
Compound: CSCC[C@H](NC(=O)c1ccc(CP(=O)(CC2CCCCC2)CC2CCCCC2)cc1-c1ccccc1C)C(=O)O [Example 1214, N-[4-(Di(cylohexylmethyl)(oxophosphinyl)methyl)-2-(2-methylphenyl)benzoyl]methionine]

% inhibition of farnesyltransferase at 1 × 10^-8 M: 71%
Compound: CSCC[C@H](NC(=O)c1ccc(CN(c2ccccc2)S(=O)(=O)c2ccc(C(F)(F)F)cc2)cc1-c1ccccc1C)C(=O)O [Example 780]

% inhibition of farnesyltransferase at 1 × 10^-6 M: 96%
Compound: CSCC[C@H](NC(=O)c1ccc(CN(Cc2ccc(C(F)(F)F)cc2)c2ccccc2)cc1-c1ccccc1C)C(=O)O [Example 782]

% inhibition of farnesyltransferase at 1 × 10^-6 M: 34%
Compound: CSCC[C@H](NC(=O)c1ccc(CNc2ccc(OC(F)(F)F)cc2)cc1-c1ccccc1)C(=O)O [Example 691]

Compound: CSCC[C@H](NC(=O)c1ccc(CN(CCC2CCCCC2)C(C)=O)cc1-c1ccccc1C)C(=O)[O-].[Li+] [Example 609]
% inhibition of farnesyltransferase at 1 × 10^-7 M: 95%

% inhibition of farnesyltransferase at 1 × 10^-8 M: 69%
Compound: CSCC[C@H](NC(=O)c1ccc(CN(Cc2cncs2)C2CCSCC2)cc1-c1ccccc1C)C(=O)O [Example 881]

% inhibition of farnesyltransferase at 1 × 10^-6 M: 84%
Compound: CSCC[C@H](NC(=O)c1ccc(CSc2nc(O)cc(Cc3ccccc3)n2)cc1-c1ccccc1C)C(=O)O [Example 744]

Compound: CSCC[C@H](NC(=O)c1ccc(COCCc2ccco2)cc1-c1ccccc1C)C(=O)[O-].[Li+] [Example 531]
% inhibition of farnesyltransferase at 1 × 10^-7 M: 74%

% inhibition of farnesyltransferase at 1 × 10^-6 M: 98%
Compound: CSCC[C@H](NC(=O)c1ccc(OCCCOc2ccccc2)cc1-c1ccccc1C)C(=O)O [Example 566]

Compound: CSCC[C@H](NC(=O)c1ccc(COCc2cnc(-c3cccc(Cl)c3)o2)cc1-c1ccccc1C)C(=O)[O-].[Li+] [Example 893]
% inhibition of farnesyltransferase at 1 × 10^-7 M: 87%

Compound: CSCC[C@H](NC(=O)c1ccc(COCc2ccccc2)cc1-c1ccccc1C)C(=O)[O-].[Li+] [Example 571]
% inhibition of farnesyltransferase at 1 × 10^-7 M: 88%

% inhibition of farnesyltransferase at 1 × 10^-6 M: 61%
Compound: CSCC[C@H](NC(=O)c1ccc(CNCCS)cc1-c1ccccc1)C(=O)O [Example 626]

% inhibition of farnesyltransferase at 1 × 10^-6 M: 80%
Compound: CSCC[C@H](NC(=O)c1ccc(CN(Cc2ccoc2)C(C)C)cc1-c1ccccc1C)C(=O)O [Example 832]

% inhibition of farnesyltransferase at 1 × 10^-6 M: 86%
Compound: CSCC[C@H](NC(=O)c1ccc(CN(CCC#N)Cc2ccccc2)cc1-c1ccccc1)C(=O)O [Example 649]

% inhibition of farnesyltransferase at 1 × 10^-6 M: 53%
Compound: CSCC[C@H](NC(=O)c1ccc(CNc2ccc(C(O)(C(F)(F)F)C(F)(F)F)cc2)cc1-c1ccccc1)C(=O)O [Example 693]

inhibition at 1 µM: 43%
Compound: CCCCON(CCC1CCCCC1)Cc1ccc(C(=O)N[C@@H](CCS(C)(=O)=O)C(=O)O)c(-c2ccccc2C)c1 [Example 298]
